Data reported in patent publication US20030180292A1, “Treatment of B cell malignancies using anti-CD40L antibodies in combination with anti-CD20 antibodies and/or chemotherapeutics and radiotherapy” (IDEC PHARMACEUTICALS, priority 2002, published 2003).

Key:
[1] = test system: B-CLL cells; experiment: Growth and survival of B-CLL cells after 7 days in culture, Alamar Blue assay; format: cell-based, human; settings: cultures with sCD40L
Experimental: Cells in one tube were mixed with sCD40L (5 μl/ml) in equal volume of growth medium, whereas the other tube was incubated with equal volume of growth medium as control. […] Seven days later, cell survival/death in culture was determined by Alamar Blue assay, as described above.

[2] = test system: HLA-DR expression on CD19+ CLL cells; experiment: HLA-DR expression on CD19+ CLL cells by flow cytometry; format: cell-based, human; settings: for HLA-DR+ % Positive / HLA-DR+ MFI: CD19+ B-cells, 5 μg/ml CD40L
Experimental: To determine whether the CD40L-CD40 signal transduction pathway is intact, CLL cells from CLL patients were cultured (5×10^5 cells/ml) with and without 5 μg/ml of CD40L at 37° C. At 48 hours and 144 hours, the class II molecule, HLA-DR expression, was determined on […] cells by flow cytometry using standard procedures. Briefly, cultured lymphocytes were harvested at different time points and analyzed for surface expression of molecules using antibodies coupled to either fluorescein (FITC) or phycoerythrin (PE) for single or double staining using a FACScan (Becton-Dickinson) flow cytometer. To stain for flow cytometry, 1×10^6 cells in culture tubes were incubated with appropriate antibodies as follows: anti-CD45-FITC to gate lymphocyte population on a scatter plot; anti-CD19-PE (Pharmingen. Cat. #30655) or anti-CD20-FITC (Pharmingen; Cat. #33264) antibodies to determine the CD19^+ and/or […] B-cells; anti-CD3-FITC antibodies (Pharmingen; Cat. #30104) to gate-off the T cells; anti-CD19-RPE and anti-HLA-DR-FITC antibodies (Pharmingen; Cat. #32384) to determine the Pclass II expression on CD19^+ cells. Cells were washed once by centrifugation (at 200×g, for 6 min.) with 2 ml cold PBS and incubated with antibody for 30 min. on ice, after which the cells washed once, fixed in 0.5% paraformaldehyde and stored at 4° C. until analyzed. Flow cytometry data was acquired on FACsan and analyzed using WinList software (Verity Software House). The machine was set to autogating to allow examination of quadrants containing cells that were single stained with either RPE or FITC, unstained or doubly stained.

[3] = test system: B-CLL cells; experiment: Survival of B-CLL cells in culture, Trypan blue dye exclusion; format: cell-based, human; settings: for % Viability (+) CD40L: sCD40L 5 μg/ml
Experimental: Peripheral blood mononuclear cells (PBMC) were isolated from a CLL patient's blood using a Ficoll-Hypaque gradient centrifulation. Viability was determined by Tryan blue dye exclusion and was >98%. […] CLL cells (PBMC) were cultured in CLL growth medium (e.g. RPMI-1640 medium supplemented with 5% FCS or 2% of autologous donor plasma, supplemented with 2 mM L-Glutamine and 100 U/ml Penicillin-Streptomycin). In addition. for some experiments, CD19^+ B-cells were purified using CD19^+ Dynabeads™ as per manufacture's instructions (Dynal, Cat. #111.03/111.04) and cultured as above. CLL or purified B-CLL cells cultured in growth medium mostly under went spontaneous apoptotic cell death. […] Table II indicates the cell viability of CD19^+ B-CLL cells grown in the presence or absence of sCD40L (5 μg/ml) at different time points and indicates the longer survival of CLL cells. B-CLL cells from Patient #1 cultured with sCD40L had ≧60% viability for greater than 2 weeks, whereas cells grown in the absence of sCD40L had less than 10% viability.

[4] = test system: DHL-4 cells; experiment: Adriamycin (ADM) cytotoxicity of DHL-4 cells with sCD40L and IDEC-131, Alamar Blue assay; format: cell-based; settings: 5 days
Experimental: Initially, the minimum concentration of ADM cytotoxic to DHL-4 cells was determined by exposing DHL-4 cells for 4 hours to different concentrations of ADM. The cell cytotoxicity of DHL-4 cells after 5 days in culture was measured by Alamar Blue, a dye-reduction assay by live cells (see Gazzano-Santoro et al., J. Immunol. Meth. 202: 163-171 (1997)). Briefly, 1×10^5 DHL-4 cells in growth medium (RMPI-1640 plus 10% Fetal Calf Serum) were incubated with varying concentrations of ADM (1×10^−6 M to 1×10^−8 M) in cell culture tubes at 37° C. for 4 hours. […] Following incubation, plates were cooled by incubating at room temperature for 10 minutes on a shaker, and the intracellular reduction of the dye was determined. Fluorescence was read using a 96-well fluorometer with excitation at 530 nm and emission at 590 nm. The results are expressed as relative fluorescence units (RFU). The percentage of cytotoxicity was calculated as follows: […]
DHL-4 cells (0.5×10^6 cells/ml) were incubated in the presence of 10 μg/ml of soluble CD40L (sCD40L, P. A. Brams, E. A. Padlan, K. Hariharan, K. Slater, J. Leonard, R. Noelle, and R. Newman, “A humanized anti-human CD154 monoclonal antibody blocks CD154-CD40 mediated human B cell activation,” (manuscript submitted)) for 1 hour at 37° C. […] After 5 days, the cytotoxicity was measured by Alamar Blue dye-uptake assay, as described.

| Compound | cell survival of B-CLL cells (in words) [1] | HLA-DR+ % Positive ([2]; 48 hrs) | HLA-DR+ MFI ([2]; 48 hrs) | HLA-DR+ % Positive ([2]; 144 hrs) | HLA-DR+ MFI ([2]; 144 hrs) | HLA-DR expression on B-CLL cells (in words) ([2]; cultured in the presence of sCD40L vs not) | % Viability (+) CD40L ([3]; B-CLL Patient #1, 0 Hours) | % Viability (+) CD40L ([3]; B-CLL Patient #1, 48 Hours) | % Viability (+) CD40L ([3]; B-CLL Patient #1, 96 Hours) | % Viability (+) CD40L ([3]; B-CLL Patient #1, 144 Hours) | % Viability (+) CD40L ([3]; B-CLL Patient #2, 0 Hours) | % Viability (+) CD40L ([3]; B-CLL Patient #2, 72 Hours) | % Viability (+) CD40L ([3]; B-CLL Patient #2, 96 Hours) | % Viability (+) CD40L ([3]; B-CLL Patient #2, 144 Hours) | viability of B-CLL cells cultured with sCD40L ([3]; Patient #1, for greater than 2 weeks) | viability of CLL or purified B-CLL cells in culture (in words) ([3]; cultured in the presence of sCD40L) | survival of DHL-4 cells after ADM treatment (in words) ([4]; sCD40L 10 μg/ml, ADM 2×10^−7 M-4×10^−8 M for 4 hours) | cytotoxicity to DHL-4 cells (in words) ([4]; exposed to ADM in the absence of sCD40L) |
| --- | --- | --- | --- | --- | --- | --- | --- | --- | --- | --- | --- | --- | --- | --- | --- | --- | --- | --- |
| sCD40L: soluble CD40L | cell survival | 88% | 101 | 95% | 2943 | higher level of HLA-DR expression | ≧90% | 90% | 77% | 72% | ≧90% | 72% | 65% | 51% | ≥ 60% | extended their viability | prolonged survival | – |
| COc1cccc2c1C(=O)c1c(O)c3c(c(O)c1C2=O)C[C@@](O)(C(=O)CO)C[C@@H]3O[C@H]1C[C@H](N)[C@H](O)[C@H](C)O1 [ADM, adriamycin] | – | – | – | – | – | – | – | – | – | – | – | – | – | – | – | – | – | increased cytotoxicity |
